# Results: article PMC6984337, “Targeting the Mycobacterium tuberculosis transpeptidase LdtMt2 with cysteine-reactive inhibitors including ebselen” (Chemical Communications (Cambridge, England), 2019)
# Read-outs that look alike come from different tables or passages of the source.
# How the values were obtained:
# LdtMt2 [1] = biological target: T1, LdtMt2 (Mycobacterium tuberculosis, UniProt I6Y9J2); test: Fluorescence-based (fluorogenic probe 1) inhibition assay for LdtMt2; format: biochemical
# T1 sequence (I6Y9J2 56-408): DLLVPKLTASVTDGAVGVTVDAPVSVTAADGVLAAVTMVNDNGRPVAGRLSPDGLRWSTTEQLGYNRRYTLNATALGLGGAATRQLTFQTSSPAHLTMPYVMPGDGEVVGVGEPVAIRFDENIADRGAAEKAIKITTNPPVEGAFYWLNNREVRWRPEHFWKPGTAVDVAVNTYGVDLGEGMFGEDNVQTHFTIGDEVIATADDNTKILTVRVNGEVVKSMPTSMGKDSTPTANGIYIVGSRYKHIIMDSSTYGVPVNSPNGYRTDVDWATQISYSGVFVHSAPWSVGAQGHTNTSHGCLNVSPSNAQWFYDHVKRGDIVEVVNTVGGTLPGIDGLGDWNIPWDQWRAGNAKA
# LdtMt2 [2] = biological target: T1, LdtMt2; test: High-throughput (RapidFire) protein mass spectrometry of covalent adduct formation with LdtMt2; format: biochemical; conditions: for time to complete reaction (adduct formation) with LdtMt2: LdtMt2 3 µM with two equivalents (6 µM) of inhibitor, 50 mM Tris pH 7.5; for stability of covalent complex with LdtMt2: after 24 hours, RapidFire MS
# Procedure: Inhibition assays were performed in flat-bottomed 384-well μ-clear plates (Greiner Bio-One) with a final volume of 25 μL, and using 50 mM HEPES, pH 7.5 containing 0.01% (v/v) Triton X-100 as the assay buffer. LdtMt2 (100 nM) was treated with a range of inhibitor concentrations, and the mixture was incubated for 0, 10 or 60 minutes. Following this pre-incubation, fluorogenic probe 1 (25 μM)2 was added, and the mixture was incubated for a further 30 minutes. The fluorescence signal was then measured using a BMG Labtech PHERAstar FS with λex = 480 nm and λem = 520 nm using the bottom optic. All reactions were carried out in quadruplicate, and controls without inhibitor and without LdtMt2 were included. Inhibition results were normalised using the no inhibitor and no enzyme controls. Dose-response analysis was performed using Prism (GraphPad) with the log(inhibitor) vs normalized response -- variable slope model. Data points were plotted as mean average with the standard deviation as the […]
# Mass spectrometric analyses were performed using an Agilent 6550 system equipped with a RapidFire sampler. Samples (100 µL) were prepared in 50 mM Tris, pH 7.5, consisting of 3 µM LdtMt2 and either 6 µM or 30 µM of the relevant inhibitor, as […]
# Purified LdtMt2 Δ1-55 (approx. 1 mM; His-tag cleaved) in 50 mM Tris, pH 8.0, 100 mM NaCl was used for crystallography. Crystallisation trials were set up using the sitting drop vapour diffusion method with the JCSG+ broad screen (Molecular Dimensions). A structure of LdtMt2 Δ1-55 (PDB 6RLG) was solved using a crystal […]
# Figure S3. MS analysis of the apparent covalent adducts formed with LdtMt2 and the cysteine-reactive inhibitors. […]
# conditions used for mass spectrometry are described in the Experimental Details […]
# (1 picture or pasted object on this page, not shown here)
# [3] = IC50 (μM, mean ± SD) 10 min, 10 min pre-incubation prior to addition of fluorogenic probe 1, LdtMt2 100 nM, probe 1 25 μM
# [4] = IC50 (μM, mean ± SD) 60 min, LdtMt2 100 nM, probe 1 25 μM
# [5] = without pre-incubation prior to addition of fluorogenic probe 1, LdtMt2 100 nM, probe 1 25 μM, read-out: IC50 (μM, mean ± SD) 0 min
Compound,IC50 (LdtMt2 [1]; [3]),IC50 (LdtMt2 [1]; [4]),IC50 (LdtMt2 [1]; [5]),time to complete reaction (adduct formation) with LdtMt2 (LdtMt2 [2]),further results
"CCC(C)SSc1ncc[nH]1 (stereo not drawn) [Compound 10, PX-12]",9.56 ± 0.25 µM,2.48 ± 0.1 µM,27.2 ± 0.5 µM,–,–
"O=c1c2ccccc2[se]n1-c1ccccc1 [Compound 4, Ebselen]",0.159 ± 0.077 µM,0.143 ± 0.014 µM,0.36 ± 0.02 µM,≤ 1 min,–
"c1ccc(SSc2ccccn2)nc1 [Compound 9, Aldrithiol]",5.35 ± 0.21 µM,1.61 ± 0.03 µM,22.1 ± 0.7 µM,≤ 10 min,–
"Cl[Se]c1ccccc1 [Compound 6, PhSeCl]",24.6 ± 0.9 µM,20 ± 1.2 µM,62.8 ± 2.2 µM,–,–
"CN(C)C(=S)SSC(=S)N(C)C [Compound 8, Thiram]",2.93 ± 0.11 µM,0.78 ± 0.029 µM,7.01 ± 0.29 µM,≤ 45 min,stability of covalent complex with LdtMt2 (LdtMt2 [2]): a small amount of unbound protein was observed
"NC(=O)CI [Compound 2, Iodoacetamide]",–,–,129 ± 14 µM,–,"IC50 (LdtMt2 [1]; read-out: IC50 (μM, mean ± SD) 10 min, 10 min pre-incubation prior to addition of fluorogenic probe 1, LdtMt2 100 nM, probe 1 25 μM): 32.5 ± 1.4 µM; IC50 (LdtMt2 [1]; read-out: IC50 (μM, mean ± SD) 60 min, LdtMt2 100 nM, probe 1 25 μM): 10.1 ± 0.7 µM"
"C[C@@H](O)[C@H]1C(=O)N2C(C(=O)O)=C([C@H]3CCCO3)S[C@H]12 [Compound 11, Faropenem]",–,–,–,–,stability of covalent complex with LdtMt2 (LdtMt2 [2]): a small amount of unbound protein was observed
"O=C1C=CC(=O)N1 [Compound 3, Maleimide]",–,–,–,> 82 min,"IC50 (LdtMt2 [1]; IC50 (μM, mean ± SD) 0 min): 158 ± 9 µM; IC50 (LdtMt2 [1]; IC50 (μM, mean ± SD) 10 min): 48.3 ± 3.6 µM; IC50 (LdtMt2 [1]; IC50 (μM, mean ± SD) 60 min): 18.6 ± 0.7 µM"
"Br[Se]c1ccccc1 [Compound 5, PhSeBr]",5.05 ± 0.35 µM,2.02 ± 0.61 µM,11.8 ± 1.3 µM,–,–
"O=[Se](O)c1ccccc1 [Compound 7, PhSe(O)OH]",136 ± 17 µM,93.2 ± 9.3 µM,309 ± 7 µM,–,–
